Results on two molecules are retold here after ChEMBL document CHEMBL3832076, “Goodman and Gilman Ed. 10 | The Pharmaceutical Basis of Therapeutics| Table A-II-I: Pharmacokinetic Data” (2001).

Series [1] in a line: Pharmacokinetic parameters for different drugs following single oral or intravenous administration in healthy subjects. The note with it: human, in vivo, 100 mg.
The nature of series [2]: Pharmacokinetic parameters for different drugs following multiple oral or intravenous administration in healthy subjects. It is filed as ADME, organism-based. The note with it: human, in vivo, dosed compound id 68, dosed compound name IMIPRAMINE HYDROCHLORIDE, regimen Repeated dose, study dosing duration 4 weeks, tissue Plasma. The arrangement: dose 200 mg/day, route oral.

In series [1] (iv), `CN(C)CCCN1c2ccccc2CCc2ccccc21.Cl` [IMIPRAMINE HYDROCHLORIDE] gave a Vd of 18 L/kg, a bioavailability of 42%, a dose excreted of 2% and a half-life of 960 min. The Cmax in series [2] (po, 200 mg/day) was found to be 200 ng/mL. For the same molecule, the Tmax in series [2] (dose 200 mg/day, route oral) lay in the range of 2 to 6 h.
As for `NC[C@H]1O[C@H](O[C@H]2[C@H](O)[C@@H](O[C@H]3O[C@H](CO)[C@@H](O)[C@H](N)[C@H]3O)[C@H](N)C[C@@H]2N)[C@H](N)C[C@@H]1O` [TOBRAMYCIN], in series [1] (im), the Tmax was 18 min. Further, the bioavailability in series [1] (inhaled or intranasal) came to 9%. In series [1] (iv), this molecule had a Vd of 0.33 L/kg, a clearance of 0.98 mL/min/kg, a dose excreted of 90% and a half-life of 132 min. Besides, the Cmax in series [1] (po, Cmax) amounted to 4600 ng/mL.
